The NIST ThermoML archive (doi:10.1016/j.jct.2010.04.019)

Assay: molar heat capacity at constant pressure; xn = mol fraction of the nth substance listed
Details: 101 kPa, Liquid, Vacuum adiabatic calorimetry

CC#N [acetonitrile] + O
molar heat capacity at constant pressure [J/K/mol]
Details | 283.15 K | 298.15 K | 313.15 K | 328.15 K
x1 = 0.0112 | 76.78 | 76.64 | 76.74 | 76.89
x1 = 0.0194 | 77.58 | 77.54 | 77.7 | 77.9
x1 = 0.0286 | 78.38 | 78.45 | 78.67 | 78.89
x1 = 0.0383 | 79.1 | 79.27 | 79.51 | 79.77
x1 = 0.0497 | 79.91 | 80.02 | 80.18 | 80.51
x1 = 0.0611 | 80.52 | 80.57 | 80.8 | 81
x1 = 0.0702 | 80.89 | 80.95 | 81.21 | 81.46
x1 = 0.0804 | 81.26 | 81.33 | 81.57 | 81.9
x1 = 0.091 | 81.66 | 81.73 | 81.99 | 82.33
x1 = 0.1007 | 81.99 | 82.06 | 82.36 | 82.7
x1 = 0.2124 | 85.36 | 85.66 | 86.24 | 86.82
x1 = 0.3063 | 87.72 | 88.31 | 89.08 | 89.92
x1 = 0.3987 | 89.89 | 90.7 | 91.59 | 92.56
x1 = 0.4856 | 91.57 | 92.38 | 93.42 | 94.38
x1 = 0.6011 | 93.03 | 93.96 | 94.89 | 95.86
x1 = 0.7107 | 93.7 | 94.44 | 95.33 | 96.16
x1 = 0.8024 | 93.56 | 94.16 | 94.79 | 95.62
x1 = 0.9005 | 92.77 | 93.28 | 93.87 | 94.55
x1 = 0.9091 | 92.66 | 93.17 | 93.75 | 94.42
x1 = 0.9203 | 92.52 | 93.01 | 93.59 | 94.24
x1 = 0.9316 | – | 92.85 | 93.41 | 94.06
x1 = 0.9402 | 92.25 | 92.73 | 93.29 | 93.94
x1 = 0.9496 | 92.11 | 92.59 | 93.14 | 93.77
x1 = 0.9604 | 91.94 | 92.4 | 92.95 | 93.58
x1 = 0.9711 | 91.77 | 92.22 | 92.76 | 93.38
x1 = 0.9803 | 91.61 | 92.06 | 92.59 | 93.21
x1 = 0.991 | 91.42 | 91.87 | 92.39 | 93
x1 = 1 | 91.25 | 91.69 | 92.21 | 92.82

O [water] + CC#N
x2 = 0
Details | molar heat capacity at constant pressure [J/K/mol]
283.15 K | 75.52
298.15 K | 75.29
313.15 K | 75.27
328.15 K | 75.34
